Laboratory results from patent US20170291875A1, “QUINOLONES AS INHIBITORS OF CLASS IV BROMODOMAIN PROTEINS” (UCL BUSINESS PLC, priority 2014, published 2017).

Key:
BRPF1B = target: T1, BRPF1B (Homo sapiens, UniProt P55201); test: BROMOscan bromodomain competitive binding assay (DiscoveRx), BRPF1B; conditions: BROMOscan platform, n = 2 unless cell says n = 4
T1 construct: purchased DiscoveRx (BROMOscan platform); host or cells: E. coli host derived from BL21 (T7 phage)
T1 sequence (P55201 628-732 limits assumed): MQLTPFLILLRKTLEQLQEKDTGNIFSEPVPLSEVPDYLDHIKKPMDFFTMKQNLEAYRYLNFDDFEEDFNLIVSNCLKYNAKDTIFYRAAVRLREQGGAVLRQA
Procedure: (§1) Compounds were tested using the commercially available BROMOscan™ Platform (DiscoveRx): http://www.discoverx.com/technologies-platforms/competitive-binding-technology/bromoscan-technology-platform/bromoscan-assay-process.
(§2) Bromodomain assays. T7 phage strains displaying bromodomains were grown in parallel in 24-well blocks in an E. coli host derived from the BL21 strain. E. coli were grown to log-phase and infected with T7 phage from a frozen stock (multiplicity of infection=0.4) and incubated with shaking at 32° C. until lysis (90-150 minutes). The lysates were centrifuged (5,000×g) and filtered (0.2 μm) to remove cell debris. […] The liganded beads were blocked with excess biotin and washed with blocking buffer (SeaBlock (Pierce), 1% BSA, 0.05% Tween 20, 1 mM DTT) to remove unbound ligand and to reduce non-specific phage binding. […] Test compounds were prepared as 1000× stocks in 100% DMSO and subsequently diluted 1:10 in monoethylene glycol (MEG) to create stocks at 100× the screening concentration (resulting stock solution is 10% DMSO/90% MEG). The compounds were then diluted directly into the assays such that the final concentration of DMSO and MEG were 0.1% and 0.9%, respectively. All reactions were performed in polystyrene 96-well plates in a final volume of 0.135 ml. […] The bromodomain concentration in the eluates was measured by qPCR.
(§3) An 11-point 3-fold serial dilution of each test compound was prepared in 100% DMSO at 1000× final test concentration. This serial is then diluted to 100× in ethylene glycol and subsequently diluted to 1× in the assay (final DMSO concentration=0.1%, Ethylene glycol concentration=0.9%). Most Kds were determined using a compound top concentration=10,000 nM.
(§4) Binding constants (Kds) were calculated with a standard dose-response curve using the Hill equation: […]
(§5) The Hill Slope was set to −1. Curves were fitted using a non-linear least square fit with the Levenberg-Marquardt algorithm.
(§6) BROMOscan™ uses the same assay technology as KINOMEscan™. For a more detailed description of this assay technology, see Fabian et al.12

BRD1 = target: T2, BRD1 (Homo sapiens, UniProt O95696); test: BROMOscan bromodomain competitive binding assay (DiscoveRx), BRD1; conditions: BROMOscan platform, n = 2
T2 construct: purchased DiscoveRx (BROMOscan platform); host or cells: E. coli host derived from BL21 (T7 phage)
T2 sequence (O95696 562-666 limits assumed): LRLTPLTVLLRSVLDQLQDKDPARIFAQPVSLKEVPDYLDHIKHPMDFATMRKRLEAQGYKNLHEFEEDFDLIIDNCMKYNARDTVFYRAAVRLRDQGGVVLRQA
Procedure: as §1, §2, §3, §4, §5, §6

BRPF3 = target: T3, BRPF3 (Homo sapiens, UniProt Q9ULD4); test: BROMOscan bromodomain competitive binding assay (DiscoveRx), BRPF3; conditions: BROMOscan platform, n = 2
T3 construct: purchased DiscoveRx (BROMOscan platform); host or cells: E. coli host derived from BL21 (T7 phage)
T3 sequence (Q9ULD4 589-693 limits assumed): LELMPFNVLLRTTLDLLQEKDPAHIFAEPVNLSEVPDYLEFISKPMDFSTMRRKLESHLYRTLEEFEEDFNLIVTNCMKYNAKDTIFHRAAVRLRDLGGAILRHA
Procedure: as §1, §2, §3, §4, §5, §6

BRD9 = target: T4, BRD9 (Homo sapiens, UniProt Q9H8M2); test: BROMOscan bromodomain competitive binding assay (DiscoveRx), BRD9; conditions: BROMOscan platform, n = 2
T4 construct: purchased DiscoveRx (BROMOscan platform); host or cells: E. coli host derived from BL21 (T7 phage)
T4 sequence (Q9H8M2 136-240 limits assumed): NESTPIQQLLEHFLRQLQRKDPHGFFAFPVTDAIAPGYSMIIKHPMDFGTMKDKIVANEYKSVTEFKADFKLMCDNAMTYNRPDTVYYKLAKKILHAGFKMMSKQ
Procedure: as §1, §2, §3, §4, §5, §6

Compound	Kd (BRPF1B) [nM]	Kd (BRD1) [nM]	Kd (BRPF3) [nM]	Kd (BRD9) [nM]
Cn1c(=O)ccc2cc(NS(=O)(=O)c3ccccc3)ccc21 [Compound 1, N-(1-methyl-2-oxo-1,2-dihydroquinolin-6-yl)benzenesulfonamide]	65	1400	7600	
Cn1c(=O)ccc2cc(NS(=O)(=O)c3ccccc3C#N)ccc21 [Compound 2, 2-cyano-N-(1-methyl-2-oxo-1,2-dihydroquinolin-6-yl)benzenesulfonamide]	430	1700		
Cn1c(=O)ccc2cc(NS(=O)(=O)c3cccc(C#N)c3)ccc21 [Compound 3, 3-cyano-N-(1-methyl-2-oxo-1,2-dihydroquinolin-6-yl)benzenesulfonamide]	56	270		
Cn1c(=O)ccc2cc(NS(=O)(=O)c3ccc(C#N)cc3)ccc21 [Compound 4, 4-cyano-N-(1-methyl-2-oxo-1,2-dihydroquinolin-6-yl)benzenesulfonamide]	43	200	1000	910
Cn1c(=O)ccc2cc(NS(=O)(=O)c3ccc(Cl)c(Cl)c3)ccc21 [Compound 9, 3,4-dichloro-N-(1-methyl-2-oxo-1,2-dihydroquinolin-6-yl)benzenesulfonamide]	44	230		
COc1cc2c(ccc(=O)n2C)cc1NS(=O)(=O)c1ccccc1 [Compound 10, N-(7-methoxy-1-methyl-2-oxo-1,2-dihydroquinolin-6-yl)benzenesulfonamide]	29	380	2200	
COc1cc2c(ccc(=O)n2C)cc1NS(=O)(=O)c1ccc(C#N)cc1 [Compound 11, 4-cyano-N-(7-methoxy-1-methyl-2-oxo-1,2-dihydroquinolin-6-yl)benzenesulfonamide]	53	520	2200	2700
CCOc1cc2c(ccc(=O)n2C)cc1NS(=O)(=O)c1ccc(C#N)cc1 [Compound 13, 4-cyano-N-(7-ethoxy-1-methyl-2-oxo-1,2-dihydroquinolin-6-yl)benzenesulfonamide]	55			
CC(C)Oc1cc2c(ccc(=O)n2C)cc1NS(=O)(=O)c1ccc(C#N)cc1 [Compound 14, 4-cyano-N-(7-isopropoxy-1-methyl-2-oxo-1,2-dihydroquinolin-6-yl)benzenesulfonamide]	39			
COc1c(NS(=O)(=O)c2ccc(C#N)cc2)ccc2c1ccc(=O)n2C [Compound 16, 4-cyano-N-(5-methoxy-1-methyl-2-oxo-1,2-dihydroquinolin-6-yl)benzenesulfonamide]	46	210		
Cn1c(=O)ccc2c(Br)c(NS(=O)(=O)c3ccc(C#N)cc3)ccc21 [Compound 18, N-(5-bromo-1-methyl-2-oxo-1,2-dihydroquinolin-6-yl)-4-cyanobenzenesulfonamide]	210	840		
COc1cc2c(cc1NS(=O)(=O)c1ccccc1)cc(C)c(=O)n2C [Compound 21, N-(7-methoxy-1,3-dimethyl-2-oxo-1,2-dihydroquinolin-6-yl)benzenesulfonamide]	17	190	590	
COc1cc2c(cc1NS(=O)(=O)c1ccc(C#N)cc1)cc(C)c(=O)n2C [Compound 22, 4-cyano-N-(7-methoxy-1,3-dimethyl-2-oxo-1,2-dihydroquinolin-6-yl)benzenesulfonamide]	15	100	280	
COc1cc2c(cc1NS(=O)(=O)c1ccc(N)cc1)cc(C)c(=O)n2C [Compound 25, 4-amino-N-(7-methoxy-1,3-dimethyl-2-oxo-1,2-dihydroquinolin-6-yl)benzenesulfonamide]	420			
Cc1cc(=O)n(C)c2ccc(NS(=O)(=O)c3ccc(C#N)cc3)cc12 [Compound 30, 4-cyano-N-(1,4-dimethyl-2-oxo-1,2-dihydroquinolin-6-yl)benzenesulfonamide]	24	150		
CN(c1ccc2c(ccc(=O)n2C)c1)S(=O)(=O)c1ccc(C#N)cc1 [Compound 34, 4-cyano-N-methyl-N-(1-methyl-2-oxo-1,2-dihydroquinolin-6-yl)benzenesulfonamide]	910	6700		

Compound	Kd (BRPF1B) [nM]	Kd (BRD1) [nM]	Kd (BRPF3) [nM]	Kd (BRD9) [nM]
CCn1c(=O)ccc2cc(NS(=O)(=O)c3ccc(C#N)cc3)ccc21 [Compound 35, 4-cyano-N-(1-ethyl-2-oxo-1,2-dihydroquinolin-6-yl)benzenesulfonamide]	47	390		
Cn1c(=O)ccc2cc(S(=O)(=O)Nc3ccc(C#N)cc3)ccc21 [Compound 38, N-(4-cyanophenyl)-1-methyl-2-oxo-1,2-dihydroquinoline-6-sulfonamide]	100	150		
CCc1cc2cc(NS(=O)(=O)c3ccc(C#N)cc3OC)ccc2n(C)c1=O [Compound 45, 4-cyano-N-(3-ethyl-1-methyl-2-oxo-1,2-dihydroquinolin-6-yl)-2-methoxybenzenesulfonamide]	66			
COc1cc(C#N)ccc1S(=O)(=O)Nc1cc(F)c2c(c1)cc(C)c(=O)n2C [Compound 49, 4-cyano-N-(8-fluoro-1,3-dimethyl-2-oxo-1,2-dihydroquinolin-6-yl)-2-methoxybenzenesulfonamide]	10			
COc1cc2c(cc1NS(=O)(=O)c1ccc(C#N)cc1)c(C)c(C)c(=O)n2C [Compound 50, 4-cyano-N-(7-methoxy-1,3,4-trimethyl-2-oxo-1,2-dihydroquinolin-6-yl)benzenesulfonamide]	140			
Cn1c(=O)ccc2cc(NS(C)(=O)=O)ccc21 [Compound 51, N-(1-methyl-2-oxo-1,2-dihydroquinolin-6-yl)methanesulfonamide]	2200			
CCS(=O)(=O)Nc1ccc2c(ccc(=O)n2C)c1 [Compound 52, N-(1-methyl-2-oxo-1,2-dihydroquinolin-6-yl)ethanesulfonamide]	1200			
CC(C)S(=O)(=O)Nc1ccc2c(ccc(=O)n2C)c1 [Compound 53, N-(1-methyl-2-oxo-1,2-dihydroquinolin-6-yl)propane-2-sulfonamide]	1100			
Cn1c(=O)ccc2cc(NS(=O)(=O)C3CC3)ccc21 [Compound 54, N-(1-methyl-2-oxo-1,2-dihydroquinolin-6-yl)cyclopropanesulfonamide]	520			
Cn1c(=O)ccc2cc(NS(=O)(=O)C3CCCCC3)ccc21 [Compound 55, N-(1-methyl-2-oxo-1,2-dihydroquinolin-6-yl)cyclohexanesulfonamide]	380			
Cc1cc2cc(NS(=O)(=O)C3CCCCC3)ccc2n(C)c1=O [Compound 56, N-(1,3-dimethyl-2-oxo-1,2-dihydroquinolin-6-yl)cyclohexanesulfonamide]	31			
COc1cc(C#N)ccc1S(=O)(=O)N(C)c1ccc2c(c1)cc(C)c(=O)n2C [Compound 59, 4-cyano-N-(1,3-dimethyl-2-oxo-1,2-dihydroquinolin-6-yl)-2-methoxy-N-methylbenzenesulfonamide]	52			
COc1cc(C(N)=O)ccc1S(=O)(=O)Nc1ccc2c(c1)cc(C)c(=O)n2C [Compound 62, 4-(N-(1,3-dimethyl-2-oxo-1,2-dihydroquinolin-6-yl)sulfamoyl)-3-methoxybenzamide]	5			
COc1cc2c(cc1NS(=O)(=O)c1ccccc1OC(F)(F)F)cc(C)c(=O)n2C [Compound 67, N-(7-methoxy-1,3-dimethyl-2-oxo-1,2-dihydroquinolin-6-yl)-2-(trifluoromethoxy)benzenesulfonamide]	48			
COc1ccccc1S(=O)(=O)Nc1ccc2c(c1)cc(C)c(=O)n2C [Compound P-001, N-(1,3-dimethyl-2-oxo-1,2-dihydroquinolin-6-yl)-2-methoxybenzenesulfonamide, reference compound]	9	130		
